Measurements: PubChem BioAssay (NCI)
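In this assay, cells in 96-well plates receive the compound at five concentrations for 48 hours. Endpoints are linearly interpolated between the surrounding concentrations. Definition used: TGI = concentration required for complete inhibition of growth.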

Experiments:
Assay in all cases: inhibition of tumour cell growth, NCI panel, 48 h
MOLT-4 leukemia = tested on: MOLT-4 leukemia
SK-MEL-2 melanoma = tested on: SK-MEL-2 melanoma
SF-539 CNS = tested on: SF-539 CNS
K-562 leukemia = tested on: K-562 leukemia
NCI-H460 lung = tested on: NCI-H460 lung
SF-295 CNS = tested on: SF-295 CNS
HCT-116 colon = tested on: HCT-116 colon
DU-145 prostate = tested on: DU-145 prostate
TK-10 renal = tested on: TK-10 renal
786-0 renal = tested on: 786-0 renal
UACC-62 melanoma = tested on: UACC-62 melanoma
BT-549 breast = tested on: BT-549 breast
HCC-2998 colon = tested on: HCC-2998 colon
MDA-MB-435 = tested on: MDA-MB-435
OVCAR-3 ovarian = tested on: OVCAR-3 ovarian
SN12C renal = tested on: SN12C renal
MALME-3M melanoma = tested on: MALME-3M melanoma
SK-MEL-5 melanoma = tested on: SK-MEL-5 melanoma
NCI/ADR-RES ovarian = tested on: NCI/ADR-RES ovarian
LOX IMVI melanoma = tested on: LOX IMVI melanoma
UO-31 renal = tested on: UO-31 renal
RPMI-8226 leukemia = tested on: RPMI-8226 leukemia
A549 NSCLC = tested on: A549 NSCLC
MDA-N = tested on: MDA-N
HT29 colon = tested on: HT29 colon
PC-3 prostate = tested on: PC-3 prostate
HOP-62 NSCLC = tested on: HOP-62 NSCLC
SK-OV-3 ovarian = tested on: SK-OV-3 ovarian
MDA-MB-231 breast = tested on: MDA-MB-231 breast
UACC-257 melanoma = tested on: UACC-257 melanoma
HS 578T breast = tested on: HS 578T breast
OVCAR-5 ovarian = tested on: OVCAR-5 ovarian
HCT-15 colon = tested on: HCT-15 colon
COLO 205 colon = tested on: COLO 205 colon
IGROV1 ovarian = tested on: IGROV1 ovarian
EKVX NSCLC = tested on: EKVX NSCLC
SNB-19 CNS = tested on: SNB-19 CNS
CCRF-CEM leukemia = tested on: CCRF-CEM leukemia
CAKI-1 renal = tested on: CAKI-1 renal
MCF7 breast = tested on: MCF7 breast
M14 melanoma = tested on: M14 melanoma
NCI-H226 lung = tested on: NCI-H226 lung
OVCAR-8 ovarian = tested on: OVCAR-8 ovarian
RXF 393 renal = tested on: RXF 393 renal
NCI-H23 lung = tested on: NCI-H23 lung
HOP-92 NSCLC = tested on: HOP-92 NSCLC
A498 renal = tested on: A498 renal
ACHN renal = tested on: ACHN renal
SW-620 colon = tested on: SW-620 colon
SK-MEL-28 melanoma = tested on: SK-MEL-28 melanoma
SNB-75 CNS = tested on: SNB-75 CNS
SR leukemia = tested on: SR leukemia
HL-60(TB) leukemia = tested on: HL-60(TB) leukemia
U251 CNS = tested on: U251 CNS
OVCAR-4 ovarian = tested on: OVCAR-4 ovarian
KM12 colon = tested on: KM12 colon
T-47D breast = tested on: T-47D breast
SF-268 CNS = tested on: SF-268 CNS
NCI-H522 lung = tested on: NCI-H522 lung

Measured: TGI

CC(C)(C)C1CCC2c3c([nH]c4ccccc34)C3C(=O)N(c4cc(Cl)ccc4Cl)C(=O)C3C2C1 (configuration not stated)
not listed: SK-MEL-28 melanoma | SNB-75 CNS | SR leukemia | HL-60(TB) leukemia | U251 CNS | OVCAR-4 ovarian | KM12 colon | T-47D breast | SF-268 CNS | NCI-H522 lung
> 100 µM: all other assays above

O=C(O)C1C2C=CC(O2)C1C(=O)NCc1ccncc1 (configuration not stated)
not listed: MOLT-4 leukemia | BT-549 breast | HCC-2998 colon | NCI/ADR-RES ovarian | HCT-15 colon | NCI-H23 lung
> 100 µM: all other assays above
